Results reported in BindingDB's records for doi:10.1046/j.1460-9568.2003.02744.x (University of Innsbruck, 2003).

What was measured:
[1] = molecular target: Kappa-type opioid receptor (Rattus norvegicus, UniProt P34975)
[2] = molecular target: Delta-type opioid receptor (Rattus norvegicus, UniProt P33533)
Mu-type opioid receptor = Mu-type opioid receptor (Rattus norvegicus, UniProt P33535)
Sequence of Mu-type opioid receptor (P33535 whole entry): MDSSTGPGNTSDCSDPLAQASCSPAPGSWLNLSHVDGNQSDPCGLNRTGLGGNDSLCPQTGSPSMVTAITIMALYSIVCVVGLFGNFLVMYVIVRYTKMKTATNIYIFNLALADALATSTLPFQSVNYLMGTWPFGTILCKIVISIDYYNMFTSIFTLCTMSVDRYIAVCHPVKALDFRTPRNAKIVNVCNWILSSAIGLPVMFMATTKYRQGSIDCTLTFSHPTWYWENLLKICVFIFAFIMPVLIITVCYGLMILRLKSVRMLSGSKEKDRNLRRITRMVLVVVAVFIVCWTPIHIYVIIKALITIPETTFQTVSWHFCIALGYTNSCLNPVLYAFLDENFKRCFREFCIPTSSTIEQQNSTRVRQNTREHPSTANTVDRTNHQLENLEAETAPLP

Sequence of Kappa-type opioid receptor (P34975 whole entry): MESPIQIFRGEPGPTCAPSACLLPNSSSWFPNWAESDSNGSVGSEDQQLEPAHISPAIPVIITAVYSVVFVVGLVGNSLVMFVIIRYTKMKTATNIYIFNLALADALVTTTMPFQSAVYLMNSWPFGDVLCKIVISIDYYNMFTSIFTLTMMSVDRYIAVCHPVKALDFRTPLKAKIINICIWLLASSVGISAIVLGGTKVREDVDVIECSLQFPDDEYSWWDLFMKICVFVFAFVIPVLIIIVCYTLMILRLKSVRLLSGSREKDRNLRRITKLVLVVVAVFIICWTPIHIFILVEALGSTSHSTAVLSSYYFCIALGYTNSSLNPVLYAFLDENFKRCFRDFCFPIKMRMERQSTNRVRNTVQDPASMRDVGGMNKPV
Sequence of Delta-type opioid receptor (P33533 whole entry): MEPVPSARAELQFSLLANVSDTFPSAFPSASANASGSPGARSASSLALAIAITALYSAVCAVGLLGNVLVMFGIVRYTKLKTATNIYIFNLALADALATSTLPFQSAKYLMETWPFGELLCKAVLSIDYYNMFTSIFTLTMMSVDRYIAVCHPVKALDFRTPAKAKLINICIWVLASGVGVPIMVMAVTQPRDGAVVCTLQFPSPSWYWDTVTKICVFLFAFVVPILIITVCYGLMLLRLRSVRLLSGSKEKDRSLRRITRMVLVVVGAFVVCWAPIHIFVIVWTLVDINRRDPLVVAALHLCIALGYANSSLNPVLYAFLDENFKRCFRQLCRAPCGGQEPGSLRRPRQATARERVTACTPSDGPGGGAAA

Row | Compound | Ki [1] | Ki [2] | Ki (Mu-type opioid receptor)
1 | Oc1ccc2c3c1OC1c4[nH]c5c(c4CC4(O)CN(CCC314)C(C1CC1)C2)CC1(O)CN2CCC13c1c(ccc(O)c1OC53)CC2C1CC1 (stereo unspecified) [CAS_105618-26-6] | 38.8 nM |  | 
2 | CCO[C@@]12Cc3c([nH]c4ccccc34)[C@]3(C)Oc4c(O)ccc5c4[C@@]31CCN(CC1CC1)C2C5 [HS-378] |  | 528 nM | 
3 | COC12CCC(=O)C3(C)Oc4c(O)ccc5c4C31CCN(C)C2C5 (stereo unspecified) [NSC_125489] | 25.2 nM |  | 0.48 nM
4 | COc1cccc2c1C13CCN(CC4CC4)C(C2)C1(OC)CCC(=O)C3 (stereo unspecified) [NSC_3081671] |  |  | 15.1 nM
5 | CC(C)[C@H](NC(=O)[C@H](CCC(=O)O)NC(=O)[C@H](Cc1ccccc1)NC(=O)[C@@H](C)NC(=O)[C@@H](N)Cc1ccc(O)cc1)C(=O)N[C@H](C(=O)NCC(N)=O)C(C)C [Tyr-D-Ala-Phe-Glu-Val-Val-GlyNH2] |  | 48.3 nM | 
